# Values quoted from earlier work in article PMC12238723, “Phase I Clinical Trial of CVL218, a Novel PARP1/2 Inhibitor, in Patients with Advanced Solid Tumors” (MedComm, 2025).
# Columns and labels:
# patients = conditions: cited from earlier work
# [1] = design: method as in PMID 37806255; conditions: recommended dose of 300 mg BID; cited from earlier work
SMILES,grade ≥3 anemia incidence (patients),increased risk of MDS/AML compared with placebo (patients),median Tmax [1],incidence of MDS/AML (patients),incidence of anemia (patients),occurrence of grade ≥3 anemia (patients),overall incidence of grade ≥3 AEs (patients),rate of dose reduction due to AEs (patients),treatment discontinuation rates (patients),"grade ≥3 gastrointestinal AEs (patients; comparison value, no reference given)"
NC(=O)c1cccc2cn(-c3ccc([C@@H]4CCCNC4)cc3)nc12 [niraparib],14.7–22.5%,48%,–,–,–,–,–,–,–,–
"O=C(c1cc(Cc2n[nH]c(=O)c3ccccc23)ccc1F)N1CCN(C(=O)C2CC2)CC1 [olaparib, Olaparib]",–,158%,1.5 h,approximately 1%,21 to 46%,5.1–22%,36–40%,25–29%,6–17%,4.3%
